Results from the NIST ThermoML archive (doi:10.1016/j.jct.2016.08.006).

Key:
[1] = molar heat capacity at constant pressure; settings: 101.3 kPa, Liquid, Small sample (50 mg) DSC
[2] = molar heat capacity at constant pressure; xn = mol fraction of the nth substance listed; settings: 101.3 kPa, Liquid, Small sample (50 mg) DSC, x2 = 0

O [water]
[1]
Settings	molar heat capacity at constant pressure [J/K/mol]
303.2 K	75.26
308.2 K	75.27
313.2 K	75.29
318.2 K	75.31
323.2 K	75.29
328.2 K	75.32
333.2 K	75.41
338.2 K	75.44
343.2 K	75.48
348.2 K	75.55
353.2 K	75.78

O [water] + CNCCN(C)C
[2]
Settings	molar heat capacity at constant pressure [J/K/mol]
303.2 K	75.26
308.2 K	75.27
313.2 K	75.29
318.2 K	75.31
323.2 K	75.29
328.2 K	75.32
333.2 K	75.41
338.2 K	75.44
343.2 K	75.48
348.2 K	75.55
353.2 K	75.78

CNCCN(C)C [N,N,N'-trimethylethylenediamine]
[1]
Settings	molar heat capacity at constant pressure [J/K/mol]
303.2 K	258.3
308.2 K	260
313.2 K	262.7
318.2 K	265.3
323.2 K	269.2
328.2 K	272.7
333.2 K	276
338.2 K	278.9
343.2 K	281.3
348.2 K	283.4
353.2 K	286.6

O [water] + NCCN1CCNCC1
[2]
Settings	molar heat capacity at constant pressure [J/K/mol]
303.2 K	75.26
308.2 K	75.27
313.2 K	75.29
318.2 K	75.31
323.2 K	75.29
328.2 K	75.32
333.2 K	75.41
338.2 K	75.44
343.2 K	75.48
348.2 K	75.55
353.2 K	75.78

Cc1ccccc1 [toluene]
[1]
Settings	molar heat capacity at constant pressure [J/K/mol]
303.2 K	159.1
308.2 K	160.4
313.2 K	161.6
318.2 K	163
323.2 K	164.1
328.2 K	165.5
333.2 K	167
338.2 K	168.6
343.2 K	170.4
348.2 K	172.8
353.2 K	175.1

NCCN1CCNCC1 [N-(β-aminoethyl)piperazine)]
[1]
Settings	molar heat capacity at constant pressure [J/K/mol]
303.2 K	289.7
308.2 K	290.8
313.2 K	293.1
318.2 K	294.7
323.2 K	296.9
328.2 K	298.5
333.2 K	300.7
338.2 K	302.2
343.2 K	303.3
348.2 K	303.6
353.2 K	304.6
